Columns and labels:
[1] = test system: p-AMPK (Thr172); test: AMPK activation by p-AMPK (Thr172) Western blot in pancreatic cancer cell lines; type: cell-based, human; conditions: 10 μM, 12 hours, compared to untreated group
Method: (§1) [3-2] The three breast cancer cell lines (4T1, BT549, and MDA-MB-231) of Experimental Method 1 were treated with each of the compound of Production Example 6 and 13 compounds, including the compounds of Production Examples 1 to 5 and 8 to 15 having a similar structure (YE-01, 02, 03, 04, 05, 08, 09, 10, 11, 12, 13, 14 and 15), at a concentration of 10 μM, and then cultured for 24 hours. In addition, each of two types of gastric cancer cell lines, brain cancer cell lines and pancreatic cancer cell lines was treated with the compound of Production Example 6 or the compound of Production Example 8 having a similar structure at a concentration of 10 μM and then cultured for 12 hours. Thereafter, the cells were harvested and lysed in RIPA buffer, and the protein was electrophoresed by SDS-PAGE, and then the expression level of the protein was analyzed using antibodies specific for AMPK and phospho-AMPK (Thr172). GAPDH or β-actin was used as a loading control for protein quantification.

[2] = test system: p-AMPK (Thr172); test: AMPK activation by p-AMPK (Thr172) Western blot in gastric cancer cell lines; type: cell-based, human; conditions: 10 μM, 12 hours, compared to untreated group
Method: as §1

[3] = test system: p-AMPK (Thr172); test: AMPK activation by p-AMPK (Thr172) Western blot in brain cancer cell lines; type: cell-based, human; conditions: 10 μM, 12 hours, compared to untreated group
Method: as §1

[4] = test system: p-AMPK (Thr172); test: AMPK activation by p-AMPK (Thr172) Western blot in MDA-MB-231 cells; type: cell-based, human; conditions: MDA-MB-231, 10 μM, 24 hours; FIG. 3B
Method: (§2) [3-1] The breast cancer cell line of Experimental Method 1 above was treated with the compound of Production Example 6 at a concentration of 0 to 30 μM, and then cultured for 24 hours. Thereafter, the cells were harvested and lysed in RIPA buffer, and the protein was electrophoresed by SDS-PAGE, and then the expression level of the protein was analyzed using antibodies specific for AMPK and phospho-AMPK (Thr172). GAPDH or β-actin was used as a loading control for protein quantification.
as §1

[5] = test system: p-AMPK (Thr172); test: AMPK activation by p-AMPK (Thr172) Western blot in BT549 cells; type: cell-based, human; conditions: BT549, 10 μM, 24 hours; FIG. 3B
Method: as §2
as §1, with “In addition, each of two types of gastric cancer cell lines, brain cancer cell lines and pancreatic cancer cell lines was treated with the compound of Production Example 6 or the compound of Production Example 8 having a similar structure at a concentration of 10 μM and then cultured for 12 hours.” left out

[6] = test system: BT549 cell line; test: Cell viability assay (WST-1); type: cell-based; conditions: Homo sapiens, BT-549; BT549, 10 μM, 24 hours; FIG. 3A; read-out: cancer cell viability inhibited
Method: (§3) [4-1-1] The breast cancer cell line of Experimental Method 1 was treated with 5-aminoimidazole-4-carboxamide ribonucleotide (AICAR) (which is not the compound of Production Example 6) or the compound of Production Example 6 at a concentration of 0 to 30 μM, and then cultured for 24 hours, 48 hours and 72 hours. Thereafter, the cultured cells were treated with WST-1 reagent, and then the absorbance at a wavelength of 450 nm was measured. Here, the WST-1 reagent allows the cell viability to be measured by changing the color of the culture medium depending on the level of the mitochondrial dehydrogenase present in the cell.
(§4) [4-1-2] The breast cancer cell line 4T1, BT549 or MDA-MB-231 of Experimental Method 1 was treated with each of the compound of Production Example 6 and 13 compounds, including the compounds of Production Examples 1 to 5 and 8 to 15 having a similar structure (YE-01, 02, 03, 04, 05, 08, 09, 10, 11, 12, 13, 14 and 15), at a concentration of 0 to 50 μM, and then cultured for 24 hours. Each of three types of gastric cancer cell lines, brain cancer cell lines and pancreatic cancer cell lines was treated with the compound of Production Example 6 or the compound of Production Example 8 having a similar structure at a concentration of 0 to 50 μM, and then cultured for 24 hours. Thereafter, the cultured cells were treated with WST-1 reagent according to the manufacturer's instruction, and after a certain time, the absorbance at a wavelength of 450 nm was measured. Here, the WST-1 reagent allows the cell viability to be measured by changing the color of the culture medium depending on the level of the mitochondrial dehydrogenase present in the cell.

[7] = test system: MDA-MB-231 cell line; test: Cell viability assay (WST-1); type: cell-based; conditions: Homo sapiens; MDA-MB-231, 10 μM, 24 hours; FIG. 3A; read-out: cancer cell viability inhibited
Method: as §3, §4

[8] = test system: 4T1 cell line; test: Cell viability assay (WST-1); type: cell-based; conditions: Mus musculus; 4T1, 10 μM, 24 hours; FIG. 3A; read-out: cancer cell viability inhibited
Method: as §3, §4

[9] = test system: p-AMPK (Thr172); test: AMPK activation by p-AMPK (Thr172) Western blot in 4T1 cells; type: cell-based, mouse; conditions: 4T1, 10 μM, 24 hours; FIG. 3B
Method: as §2, §1

| Compound | expression of p-AMPK [1] | expression of p-AMPK [2] | expression of p-AMPK [3] | p-AMPK level [4] | p-AMPK level [5] | cytotoxicity at 10 µM [6] | cytotoxicity at 10 µM [7] | cytotoxicity at 10 µM [8] | p-AMPK level [9] |
| --- | --- | --- | --- | --- | --- | --- | --- | --- | --- |
| NC(=O)c1ncn([C@@H]2O[C@H](COP(=O)(O)O)[C@@H](O)[C@H]2O)c1N [AICAR, 5-aminoimidazole-4-carboxamide ribonucleotide, reference compound] | insignificant effect | insignificant effect | insignificant effect | – | – | – | – | – | – |
| COc1ccc(OC)c(/C=C/C(=O)c2cccc(NS(=O)(=O)c3ccc(Cl)cc3)c2)c1 [Production Example 8, (E)-4-chloro-N-(3-(3-(2,5-dimethoxyphenyl)acryloyl)phenyl)benzenesulfonamide] | increased | increased | increased | effectively increased | effectively increased | ≥ 50% | ≥ 50% | ≥ 50% | effectively increased |

Source: patent US12447137B2, “Composition for prevention, amelioration, or treatment of cancer” (EWHA UNIVERSITY—INDUSTRY COLLABORATION FOUNDATION, priority 2019, dated 2025)
